Measurements: patent US20230051589A1, “COMPOUNDS AND COMPOSITIONS FOR TREATING CONDITIONS ASSOCIATED WITH NLRP ACTIVITY” (Novartis AG, priority 2018, published 2023)

The molecules below were run on IL-1β production in PMA-differentiated THP-1 cells (assay: IL-1β production in PMA-differentiated THP-1 cells stimulated with gramicidin (hTHP-1 assay, 2% fetal bovine serum; Procedures 1-3)). Settings: Homo sapiens, THP-1, Table B1; hTHP-1 assay containing 2% fetal bovine serum, gramicidin stimulation, IL-1β readout; read-out: hTHP-1 IC50 (average).
Type: cell-based, human
In short: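 IL-1β released into supernatants was read by HTRF after 2 h gramicidin (5 μM) challenge. Before challenge, compounds (3-fold dilutions, top 100 μM, 0.37% DMSO) were given 1 h on THP-1 cells differentiated with PMA (20 ng/ml, 16-18 h) and held in 2% FBS medium.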

Row | IC50 | Compound
1 | 0.04 to 0.2 µM | CC(O)(CO)c1cc(F)c(S(N)(=O)=NC(=O)Nc2c3c(c(C#N)c4c2CCC4)CCC3)s1 (centres unmarked) [Compound 411]
2 | 0.04 to 0.2 µM | CNCc1cc(F)c(S(N)(=O)=NC(=O)Nc2c3c(cc4c2CCC4)CCC3)s1 (centres unmarked) [Compound 412]

Same assay, conditions: Homo sapiens, THP-1, hTHP-1 assay containing 2% fetal bovine serum, Table B2, class symbols; read-out: IC50

Row | IC50 | Compound
3 | 0.008 to 0.04 µM | C[C@](O)(CO)c1ncc(S(N)(=O)=NC(=O)Nc2c3c(cc4c2CC4)CCC3)s1 (some centres unmarked) [919f^]
4 | 0.2 to 1 µM | NS(=O)(=NC(=O)Nc1c2c(cc3c1CCC3)CCC2)c1ccc([C@@H]2CCCN2)s1 (some centres unmarked) [921f^]
5 | 0.2 to 1 µM | N[S@@](=O)(=NC(=O)Nc1c2c(cc3c1CCC3)CCC2)c1ccc(C2CCN2)cc1 (some centres unmarked) [Compound 802a]
6 | 5 to 30 µM | N[S@](=O)(=NC(=O)Nc1c2c(cc3c1CCC3)CCC2)c1ccc([C@H]2CCN2)cc1 [Compound 802b]
7 | 5 to 30 µM | N[S@](=O)(=NC(=O)Nc1c2c(cc3c1CCC3)CCC2)c1ccc([C@@H]2CCN2)cc1 [Compound 802c]
8 | 0.2 to 1 µM | CC(C)(O)c1ccc([S@](N)(=O)=NC(=O)Nc2c3c(cc4c2C(=O)CC4)CCC3)cn1 [Compound 804b]
9 | 1 to 5 µM | CC(C)(O)c1ccnc([S@](N)(=O)=NC(=O)Nc2c3c(c(C#N)c4c2CCC4)CCC3)c1 [Compound 818a]
10 | 0.2 to 1 µM | CC(C)(O)c1ccnc([S@@](N)(=O)=NC(=O)Nc2c3c(c(C#N)c4c2CCC4)CCC3)c1 [Compound 818b]
11 | 5 to 30 µM | C[C@H](N[S@@](=O)(=NC(=O)Nc1c2c(cc3c1CCC3)CCC2)c1cnc(C(C)(C)O)s1)c1ccccc1 [Compound 887a]
12 | 1 to 5 µM | CN(C)Cc1ccc(S(N)(=O)=NC(=O)Nc2c3c(cc4c2CCC4)CCC3)s1 (centres unmarked) [Compound 889]
13 | 5 to 30 µM | CN(C)Cc1ccc([S@](N)(=O)=NC(=O)Nc2c3c(cc4c2CCC4)CCC3)s1 [Compound 889a]
14 | 0.2 to 1 µM | CN(C)Cc1ccc([S@@](N)(=O)=NC(=O)Nc2c3c(cc4c2CCC4)CCC3)s1 [Compound 889b]
15 | 1 to 5 µM | CN(Cc1ccc(S(N)(=O)=NC(=O)Nc2c3c(cc4c2CC4)CCC3)c(F)c1)C1CCC1 (centres unmarked) [Compound 891]
16 | 0.2 to 1 µM | CC(NC1CCC1)c1ccc(S(N)(=O)=NC(=O)Nc2c3c(cc4c2CC4)CCC3)c(F)c1 (centres unmarked) [Compound 892]
17 | 0.04 to 0.2 µM | CC(C)(O)c1sc(S(N)(=O)=NC(=O)Nc2c3c(cc4c2CCC4)CCC3)nc1CO (centres unmarked) [Compound 893]
18 | 1 to 5 µM | CC(C)(O)c1cccc(S(N)(=O)=NC(=O)Nc2c3c(cc4c2CCC4)CCC3)n1 (centres unmarked) [Compound 895]
19 | 0.2 to 1 µM | NS(=O)(=NC(=O)Nc1c2c(cc3c1CCC3)CCC2)c1sc(CNC2CCC2)cc1F (centres unmarked) [Compound 898]
20 | 5 to 30 µM | CN1CCC(c2ccc(S(N)(=O)=NC(=O)Nc3c4c(cc5c3CCC5)CCC4)c(F)c2)C1 (centres unmarked) [Compound 899]
21 | 0.04 to 0.2 µM | CC(C)(O)c1sc(S(N)(=O)=NC(=O)Nc2c3c(cc4c2CCC4)CCC3)cc1-c1ccccc1 (centres unmarked) [Compound 900]
22 | 1 to 5 µM | CN(C)CC(C)(C)c1ccc(S(N)(=O)=NC(=O)Nc2c3c(cc4c2CCC4)CCC3)cc1 (centres unmarked) [Compound 902]
23 | 0.2 to 1 µM | CN(C)CC(C)(C)c1ccc([S@@](N)(=O)=NC(=O)Nc2c3c(cc4c2CCC4)CCC3)cc1 [Compound 902b]
24 | 1 to 5 µM | CC(C)c1cnc(S(N)(=O)=NC(=O)Nc2c3c(cc4c2CCC4)CCC3)c(F)c1 (centres unmarked) [Compound 903]
25 | 0.2 to 1 µM | CC(C)c1cnc([S@@](N)(=O)=NC(=O)Nc2c3c(cc4c2CCC4)CCC3)c(F)c1 [Compound 903a]
26 | 5 to 30 µM | CC(C)c1cnc([S@](N)(=O)=NC(=O)Nc2c3c(cc4c2CCC4)CCC3)c(F)c1 [Compound 903b]
27 | 0.2 to 1 µM | CCn1ccc(S(N)(=O)=NC(=O)Nc2c3c(cc4c2CCC4)CCC3)n1 (centres unmarked) [Compound 904]
28 | 0.04 to 0.2 µM | CCn1ccc([S@](N)(=O)=NC(=O)Nc2c3c(cc4c2CCC4)CCC3)n1 [Compound 904a]
29 | 1 to 5 µM | CCn1ccc([S@@](N)(=O)=NC(=O)Nc2c3c(cc4c2CCC4)CCC3)n1 [Compound 904b]
30 | 1 to 5 µM | CC(C)n1nc(S(N)(=O)=NC(=O)Nc2c3c(cc4c2C(=O)CC4)CCC3)cc1CO (centres unmarked) [Compound 907]
31 | 0.2 to 1 µM | CC(C)n1nc(S(N)(=O)=NC(=O)Nc2c3c(cc4c2C(=O)CC4)CCC3)cc1C(C)(C)O (centres unmarked) [Compound 908]

Same assay, conditions: Homo sapiens, THP-1, hTHP-1 assay containing 2% fetal bovine serum, Table B2, given as bound; read-out: IC50

Row | IC50 | Compound
32 | > 30 µM | CC(C)(O)c1ccc([S@@](N)(=O)=NC(=O)Nc2c3c(cc4c2C(=O)CC4)CCC3)cn1 [Compound 804a]
33 | > 30 µM | C[C@H](N[S@](=O)(=NC(=O)Nc1c2c(cc3c1CCC3)CCC2)c1cnc(C(C)(C)O)s1)c1ccccc1 [Compound 887b]
34 | > 30 µM | CN(C)CC(C)(C)c1ccc([S@](N)(=O)=NC(=O)Nc2c3c(cc4c2CCC4)CCC3)cc1 [Compound 902a]

Same assay, conditions: Table B3; hTHP-1 assay containing 2% fetal bovine serum, gramicidin stimulation, IL-1β readout; read-out: hTHP-1 IC50

Row | IC50 | Compound
35 | 0.008 to 0.04 µM | CN[C@H](c1ccc(S(N)(=O)=NC(=O)Nc2c3c(cc4c2CC4)CCC3)s1)C1CC1 (single isomer, unassigned) [Example 866, (S, R) or (R, R)-5-(cyclopropyl(methylamino)methyl)-N′-((2,4,5,6-tetrahydro-1H-cyclobuta[f]inden-3-yl)carbamoyl)thiophene-2-sulfonimidamide]
36 | 1 to 5 µM | CN[C@H](c1ccc(S(N)(=O)=NC(=O)Nc2c3c(cc4c2CC4)CCC3)s1)C1CC1 (single isomer, unassigned) [Example 867, (S, S) or (R, S)-5-(cyclopropyl(methylamino)methyl)-N′-((2,4,5,6-tetrahydro-1H-cyclobuta[f]inden-3-yl)carbamoyl)thiophene-2-sulfonimidamide]
37 | 0.008 to 0.04 µM | CN[C@H](c1ccc(S(N)(=O)=NC(=O)Nc2c3c(cc4c2CC4)CCC3)s1)C1CC1 (single isomer, unassigned) [Example 868, (R, R) or (S, R)-5-(cyclopropyl(methylamino)methyl)-N′-((2,4,5,6-tetrahydro-1H-cyclobuta[f]inden-3-yl)carbamoyl)thiophene-2-sulfonimidamide]
38 | 0.2 to 1 µM | CN[C@H](c1ccc(S(N)(=O)=NC(=O)Nc2c3c(cc4c2CC4)CCC3)s1)C1CC1 (single isomer, unassigned) [Example 869, (R, S) or (S, S)-5-(cyclopropyl(methylamino)methyl)-N′-((2,4,5,6-tetrahydro-1H-cyclobuta[f]inden-3-yl)carbamoyl)thiophene-2-sulfonimidamide]
39 | 0.04 to 0.2 µM | CNCc1csc(S(N)(=O)=NC(=O)Nc2c3c(cc4c2CC4)CCC3)c1F (single isomer, unassigned) [Example 870, (R) or (S) -3-fluoro-4-((methylamino)methyl)-N′-((2,4,5,6-tetrahydro-1H-cyclobuta[f]inden-3-yl)carbamoyl)thiophene-2-sulfonimidamide]
40 | 1 to 5 µM | CNCc1csc(S(N)(=O)=NC(=O)Nc2c3c(cc4c2CC4)CCC3)c1F (single isomer, unassigned) [Example 871, (S) or (R) -3-fluoro-4-((methylamino)methyl)-N′-((2,4,5,6-tetrahydro-1H-cyclobuta[f]inden-3-yl)carbamoyl)thiophene-2-sulfonimidamide]
41 | 1 to 5 µM | NS(=O)(=NC(=O)Nc1c2c(cc3c1CC3)CCC2)c1cc2c(s1)CCN(CC(F)F)C2 (single isomer, unassigned) [Example 872, (R) or (S) -5-(2,2-difluoroethyl)-N′-((2,4,5,6-tetrahydro-1H-cyclobuta[f]inden-3-yl)carbamoyl)-4,5,6,7-tetrahydrothieno[3,2-c]pyridine-2-sulfonimidamide]
42 | > 30 µM | NS(=O)(=NC(=O)Nc1c2c(cc3c1CC3)CCC2)c1cc2c(s1)CCN(CC(F)F)C2 (single isomer, unassigned) [Example 873, (S) or (R) -5-(2,2-difluoroethyl)-N′-((2,4,5,6-tetrahydro-1H-cyclobuta[f]inden-3-yl)carbamoyl)-4,5,6,7-tetrahydrothieno[3,2-c]pyridine-2-sulfonimidamide]
43 | 0.04 to 0.2 µM | NS(=O)(=NC(=O)Nc1c2c(cc3c1CC3)CCC2)c1cc2c(s1)CCN[C@@H]2C(F)F (single isomer, unassigned) [Example 874, (R or S,4S)-4-(difluoromethyl)-N′-((2,4,5,6-tetrahydro-1H-cyclobuta[f]inden-3-yl)carbamoyl)-4,5,6,7-tetrahydrothieno[3,2-c]pyridine-2-sulfonimidamide]
44 | 1 to 5 µM | NS(=O)(=NC(=O)Nc1c2c(cc3c1CC3)CCC2)c1cc2c(s1)CCN[C@@H]2C(F)F (single isomer, unassigned) [Example 875, (S or R,4S)-4-(difluoromethyl)-N′-((2,4,5,6-tetrahydro-1H-cyclobula[f]inden-3-yl)carbamoyl)-4,5,6,7-tetrahydrothieno[3,2-c]pyridine-2-sulfonimidamide]
45 | 0.04 to 0.2 µM | NS(=O)(=NC(=O)Nc1c2c(cc3c1CC3)CCC2)c1cc2c(s1)CCN[C@H]2C(F)F (single isomer, unassigned) [Example 876, (R or S,4R)-4-(difluoromethyl)-N′-((2,4,5,6-tetrahydro-1H-cyclobuta[f]inden-3-yl)carbamoyl)-4,5,6,7-tetrahydrothieno[3,2-c]pyridine-2-sulfonimidamide]
46 | 1 to 5 µM | NS(=O)(=NC(=O)Nc1c2c(cc3c1CC3)CCC2)c1cc2c(s1)CCN[C@H]2C(F)F (single isomer, unassigned) [Example 877, (S or R,4R)-4-(difluoromethyl)-N′-((2,4,5,6-tetrahydro-1H-cyclobuta[f]inden-3-yl)carbamoyl)-4,5,6,7-tetrahydrothieno[3,2-c]pyridine-2-sulfonimidamide]
47 | 0.2 to 1 µM | CC(O)(CO)c1nc(CO)c(S(N)(=O)=NC(=O)Nc2c3c(cc4c2CCC4)CCC3)s1 (stereo in doubt) [Example 755, 2-((S)-1,2-dihydroxypropan-2-yl)-N′-((1,2,3,5,6,7-hexahydro-s-indacen-4-yl)carbamoyl)-4-(hydroxymethyl)thiazole-5-sulfonimidamide]
